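Each compound was tested at five concentrations against cells in 96-well plates for 48 hours. TGI denotes the concentration required for complete inhibition of growth.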
How the values were obtained:
Assay in all cases: DTP human tumour cell line panel, 48 h
786-0 renal = system: 786-0 renal
A498 renal = system: A498 renal
A549 NSCLC = system: A549 NSCLC
ACHN renal = system: ACHN renal
CAKI-1 renal = system: CAKI-1 renal
CCRF-CEM leukemia = system: CCRF-CEM leukemia
COLO 205 colon = system: COLO 205 colon
DLD-1 colon = system: DLD-1 colon
DMS 114 small cell lung = system: DMS 114 small cell lung
DMS 273 small cell lung = system: DMS 273 small cell lung
EKVX NSCLC = system: EKVX NSCLC
HCC-2998 colon = system: HCC-2998 colon
HCT-15 colon = system: HCT-15 colon
HL-60(TB) leukemia = system: HL-60(TB) leukemia
HOP-18 NSCLC = system: HOP-18 NSCLC
HOP-62 NSCLC = system: HOP-62 NSCLC
HOP-92 NSCLC = system: HOP-92 NSCLC
IGROV1 ovarian = system: IGROV1 ovarian
K-562 leukemia = system: K-562 leukemia
KM12 colon = system: KM12 colon
KM20L2 colon = system: KM20L2 colon
LOX IMVI melanoma = system: LOX IMVI melanoma
M19-MEL melanoma = system: M19-MEL melanoma
MALME-3M melanoma = system: MALME-3M melanoma
MOLT-4 leukemia = system: MOLT-4 leukemia
NCI-H23 lung = system: NCI-H23 lung
NCI-H460 lung = system: NCI-H460 lung
NCI-H522 lung = system: NCI-H522 lung
OVCAR-3 ovarian = system: OVCAR-3 ovarian
OVCAR-5 ovarian = system: OVCAR-5 ovarian
OVCAR-8 ovarian = system: OVCAR-8 ovarian
RPMI-8226 leukemia = system: RPMI-8226 leukemia
RXF 393 renal = system: RXF 393 renal
RXF-631 renal = system: RXF-631 renal
SF-268 CNS = system: SF-268 CNS
SF-295 CNS = system: SF-295 CNS
SF-539 CNS = system: SF-539 CNS
SK-MEL-2 melanoma = system: SK-MEL-2 melanoma
SK-MEL-28 melanoma = system: SK-MEL-28 melanoma
SK-MEL-5 melanoma = system: SK-MEL-5 melanoma
SK-OV-3 ovarian = system: SK-OV-3 ovarian
SN12C renal = system: SN12C renal
SNB-19 CNS = system: SNB-19 CNS
SNB-75 CNS = system: SNB-75 CNS
SNB-78 CNS = system: SNB-78 CNS
SW-620 colon = system: SW-620 colon
TK-10 renal = system: TK-10 renal
U251 CNS = system: U251 CNS
UACC-62 melanoma = system: UACC-62 melanoma
UO-31 renal = system: UO-31 renal
HCT-116 colon = system: HCT-116 colon
HT29 colon = system: HT29 colon
LXFL 529 NSCLC = system: LXFL 529 NSCLC
M14 melanoma = system: M14 melanoma
NCI-H226 lung = system: NCI-H226 lung
OVCAR-4 ovarian = system: OVCAR-4 ovarian
SR leukemia = system: SR leukemia
UACC-257 melanoma = system: UACC-257 melanoma

COc1ccc(/C=C/C(=O)c2sc(Nc3ccc([N+](=O)[O-])cc3)nc2C)cc1
TGI (786-0 renal): > 100 µM
TGI (A498 renal): > 100 µM
TGI (A549 NSCLC): > 100 µM
TGI (ACHN renal): > 100 µM
TGI (CAKI-1 renal): > 100 µM
TGI (CCRF-CEM leukemia): 82 µM
TGI (COLO 205 colon): > 100 µM
TGI (DLD-1 colon): > 100 µM
TGI (DMS 114 small cell lung): > 100 µM
TGI (DMS 273 small cell lung): > 100 µM
TGI (EKVX NSCLC): > 100 µM
TGI (HCC-2998 colon): 83.5 µM
TGI (HCT-15 colon): > 100 µM
TGI (HL-60(TB) leukemia): 67.6 µM
TGI (HOP-18 NSCLC): > 100 µM
TGI (HOP-62 NSCLC): > 100 µM
TGI (HOP-92 NSCLC): 81.5 µM
TGI (IGROV1 ovarian): > 100 µM
TGI (K-562 leukemia): 93.6 µM
TGI (KM12 colon): > 100 µM
TGI (KM20L2 colon): > 100 µM
TGI (LOX IMVI melanoma): > 100 µM
TGI (M19-MEL melanoma): > 100 µM
TGI (MALME-3M melanoma): > 100 µM
TGI (MOLT-4 leukemia): 50.7 µM
TGI (NCI-H23 lung): 85 µM
TGI (NCI-H460 lung): > 100 µM
TGI (NCI-H522 lung): 51.1 µM
TGI (OVCAR-3 ovarian): 89.4 µM
TGI (OVCAR-5 ovarian): > 100 µM
TGI (OVCAR-8 ovarian): > 100 µM
TGI (RPMI-8226 leukemia): 47.9 µM
TGI (RXF 393 renal): 87.9 µM
TGI (RXF-631 renal): > 100 µM
TGI (SF-268 CNS): > 100 µM
TGI (SF-295 CNS): 81.5 µM
TGI (SF-539 CNS): > 100 µM
TGI (SK-MEL-2 melanoma): 48.6 µM
TGI (SK-MEL-28 melanoma): > 100 µM
TGI (SK-MEL-5 melanoma): 46.8 µM
TGI (SK-OV-3 ovarian): > 100 µM
TGI (SN12C renal): > 100 µM
TGI (SNB-19 CNS): > 100 µM
TGI (SNB-75 CNS): > 100 µM
TGI (SNB-78 CNS): > 100 µM
TGI (SW-620 colon): > 100 µM
TGI (TK-10 renal): > 100 µM
TGI (U251 CNS): > 100 µM
TGI (UACC-62 melanoma): > 100 µM
TGI (UO-31 renal): 91.9 µM

O=C1c2ccccc2C(=O)c2nc3c(O)cccc3cc21
TGI (786-0 renal): > 100 µM
TGI (A498 renal): 64.2 µM
TGI (A549 NSCLC): > 100 µM
TGI (ACHN renal): > 100 µM
TGI (CAKI-1 renal): > 100 µM
TGI (COLO 205 colon): > 100 µM
TGI (DLD-1 colon): > 100 µM
TGI (DMS 114 small cell lung): 20.7 µM
TGI (DMS 273 small cell lung): > 100 µM
TGI (EKVX NSCLC): > 100 µM
TGI (HCC-2998 colon): > 100 µM
TGI (HCT-116 colon): 19.4 µM
TGI (HCT-15 colon): > 100 µM
TGI (HOP-18 NSCLC): > 100 µM
TGI (HOP-62 NSCLC): > 100 µM
TGI (HT29 colon): 52.9 µM
TGI (IGROV1 ovarian): > 100 µM
TGI (K-562 leukemia): > 100 µM
TGI (KM12 colon): > 100 µM
TGI (KM20L2 colon): > 100 µM
TGI (LOX IMVI melanoma): > 100 µM
TGI (LXFL 529 NSCLC): > 100 µM
TGI (M14 melanoma): 27.9 µM
TGI (MALME-3M melanoma): > 100 µM
TGI (MOLT-4 leukemia): 23 µM
TGI (NCI-H226 lung): > 100 µM
TGI (NCI-H23 lung): > 100 µM
TGI (NCI-H460 lung): > 100 µM
TGI (NCI-H522 lung): 72.2 µM
TGI (OVCAR-3 ovarian): 4.98 µM
TGI (OVCAR-4 ovarian): > 100 µM
TGI (OVCAR-5 ovarian): > 100 µM
TGI (OVCAR-8 ovarian): > 100 µM
TGI (RPMI-8226 leukemia): > 100 µM
TGI (RXF 393 renal): > 100 µM
TGI (RXF-631 renal): > 100 µM
TGI (SF-268 CNS): > 100 µM
TGI (SF-295 CNS): 74.1 µM
TGI (SF-539 CNS): > 100 µM
TGI (SK-MEL-2 melanoma): > 100 µM
TGI (SK-MEL-28 melanoma): > 100 µM
TGI (SK-MEL-5 melanoma): 18.5 µM
TGI (SN12C renal): > 100 µM
TGI (SNB-19 CNS): > 100 µM
TGI (SNB-75 CNS): > 100 µM
TGI (SR leukemia): > 100 µM
TGI (SW-620 colon): > 100 µM
TGI (TK-10 renal): > 100 µM
TGI (U251 CNS): > 100 µM
TGI (UACC-257 melanoma): 32.4 µM
TGI (UACC-62 melanoma): > 100 µM
TGI (UO-31 renal): > 100 µM

CN(C)[C@@H]1C(=O)C(C(=O)NCN2CCN(C(=N)N=C(N)N)CC2)=C(O)[C@@]2(O)C(=O)C3=C(O)c4c(O)cccc4[C@@](C)(O)[C@H]3C[C@@H]12
TGI (A498 renal): 4.88 µM
TGI (ACHN renal): > 100 µM
TGI (CAKI-1 renal): > 100 µM
TGI (CCRF-CEM leukemia): > 100 µM
TGI (COLO 205 colon): 14.1 µM
TGI (DLD-1 colon): 19.6 µM
TGI (DMS 273 small cell lung): 0.922 µM
TGI (EKVX NSCLC): 0.624 µM
TGI (HCT-116 colon): 17.8 µM
TGI (HCT-15 colon): 12.2 µM
TGI (HOP-62 NSCLC): 3.99 µM
TGI (HOP-92 NSCLC): 0.635 µM
TGI (HT29 colon): 16.7 µM
TGI (IGROV1 ovarian): 22 µM
TGI (K-562 leukemia): 10.5 µM
TGI (KM12 colon): 16.9 µM
TGI (KM20L2 colon): 11.6 µM
TGI (LOX IMVI melanoma): 2.04 µM
TGI (LXFL 529 NSCLC): 11.1 µM
TGI (M14 melanoma): 1.14 µM
TGI (M19-MEL melanoma): 2.28 µM
TGI (MALME-3M melanoma): 0.566 µM
TGI (MOLT-4 leukemia): 0.349 µM
TGI (NCI-H23 lung): 0.33 µM
TGI (NCI-H460 lung): 20.2 µM
TGI (NCI-H522 lung): 0.143 µM
TGI (OVCAR-3 ovarian): 34.8 µM
TGI (OVCAR-5 ovarian): 0.709 µM
TGI (OVCAR-8 ovarian): 11.2 µM
TGI (RPMI-8226 leukemia): 14.7 µM
TGI (RXF 393 renal): 0.245 µM
TGI (RXF-631 renal): 0.763 µM
TGI (SF-295 CNS): 6.82 µM
TGI (SF-539 CNS): 0.415 µM
TGI (SK-MEL-2 melanoma): 0.255 µM
TGI (SK-MEL-28 melanoma): 0.541 µM
TGI (SK-MEL-5 melanoma): 0.431 µM
TGI (SK-OV-3 ovarian): 15.8 µM
TGI (SN12C renal): 15.1 µM
TGI (SNB-19 CNS): 15.9 µM
TGI (SNB-75 CNS): 0.338 µM
TGI (SNB-78 CNS): 0.471 µM
TGI (SR leukemia): 2.3 µM
TGI (SW-620 colon): 11 µM
TGI (TK-10 renal): 14.8 µM
TGI (U251 CNS): 0.809 µM
TGI (UACC-257 melanoma): 6.29 µM
TGI (UO-31 renal): 0.982 µM

— PubChem BioAssay (NCI)
